# Assay results as given in paper PMC4298654, “In vivo formation of N-acyl-fumonisin B1” (Mycotoxin Research, 2014).
# Assay: In vivo formation of NAFB1 and NAHFB1 in rat kidney and liver (HPLC-ESI-MS/MS)
# Design: N-acyl-derivative in tissue sample, analysis a / N-acyl-derivative in tissue sample, analysis b / N-acyl-derivative in tissue sample, mean: unit not given here
# Details: 5 days
# Source text: The study protocol was approved by the Institutional Animal Care and Use Committee, Richard B. Russell Agricultural Research Center, Athens, GA. Male Sprague–Dawley rats (Harlan Industries, Indianapolis, IN, USA), 7 weeks of age at receipt, were individually housed in stainless steel, wire mesh cages in an environmentally controlled room having a 12-h light/dark cycle. Food (2019 Global Rodent Diet, Teklad, Madison, WI, USA) and fresh tap water were provided ad libitum. After a 1 week acclimation period, the animals were randomly assigned to five groups (n = 2/group) having mean weights of 215 to 216 g (weight range of all animals, 211 to 220 g). For five consecutive days, they were observed, weighed, and given an intraperitoneal injection (ip) of 0 (vehicle), 0.5, 1.0, or 2.0 mg/kg body weight FB1 (provided by R. Eppley, US FDA), 1.0 mg/kg body weight HFB1 (positive control) (Voss et al. [2009]), or vehicle (0.9 % physiological saline). These doses corresponded to 0.69, 1.38, and 2.77 μmol FB1/kg body weight and 2.47 μmol/kg body weight HFB1 per day. In order to compare the effects of FB1 and HFB1, dosages will be expressed as molar concentrations and, on this basis, the high dose of FB1 is roughly equivalent to that of the positive control dose of HFB1. Dosing solutions were sterile filtered and administered at a volume rate of 10 ml/kg body weight. The animals were fasted overnight prior to administration of the final dose. The rats were euthanized (CO2 inhalation and exsanguination) 60 to 90 min following the final dose administration and examined by necropsy. The kidney and liver specimens were fixed in 10 % neutral buffered formalin, processed, and microscopically evaluated without knowledge of the animal’s identity or treatment group. Three representative liver and kidney specimens (100 mg each) were also collected, immediately frozen, and stored (−80 °C) until processed, at which time the tissues were thawed and homogenized in distilled/deionized water (1 ml water/100 mg tissue). The homogenates were lyophilized before they were shipped by overnight courier for the analysis of fumonisin metabolites and sphingolipids.
# Lyophilized liver and kidney tissues (100 mg wet weight equivalents) were processed for the quantification of FB1, HFB1, NAFB1, NAHFB1, and sphingolipids. Preparation of the tissue samples was performed according to a previously published method (Harrer et al. [2013]). For the quantification of FB1 and HFB1, a d6-labeled derivative of FB1 (FB1-d6) was used as the internal standard. Synthetic derivatives with a heptadecanoic fatty acid (C17:0) residue were used as internal standards for the quantification of N-acyl-fumonisins and ceramides (N-C17:0-FB1, N-C17:0-HFB1, and N-C17:0-ceramide). The sphingoid bases and their phosphate derivatives were quantified using synthetic derivatives with a C17-acyl-backbone: sphingosine (C17:1), sphingosine-1-phosphate (C17:1), sphinganine (C17:0), sphinganine-1-phosphate (C17:0) as internal standards. The standards were dissolved in methanol:chloroform (2:1, v/v) and then mixed with the tissue samples. The samples spiked with internal standard were kept at room temperature for 30 min before being processed further. The internal standard-spiked samples were first extracted with ethyl acetate, isopropanol, and water (60:30:10, v/v/v) and a second time using methanol, chloroform, and water (60:30:10, v/v/v). The extracts were combined, the solvents removed by evaporation, and the dried samples stored at−80 °C till analyzed.
# For the analysis, the samples were reconstituted in a mixture of water, methanol, and tetrahydrofurane (60:24:16, v/v/v). The NAFB1 and NAHFB1 derivatives having the following fatty acyl chain lengths were quantified by HPLC-MS/MS: C16:0, C18:0, C20:0, C22:0, C24:0, C26:0. Furthermore, we also quantified the unsaturated derivatives C24:1 and C26:1. The results are given as the sum of all N-acyl derivatives of FB1 or HFB1. […]
# [1] = Kidney, treatment FB1 0,5 mg/kg BW ip
# [2] = Kidney, treatment FB1 1 mg/kg BW ip
# [3] = Kidney, treatment FB1 2 mg/kg BW ip
# [4] = Kidney, treatment HFB1 1 mg/kg BW ip
# [5] = Liver, treatment FB1 0,5 mg/kg BW ip
# [6] = Liver, treatment FB1 1 mg/kg BW ip
# [7] = Liver, treatment FB1 2 mg/kg BW ip
# [8] = Liver, treatment HFB1 1 mg/kg BW ip
Structure (SMILES),"N-acyl-derivative in tissue sample, analysis a [1]","N-acyl-derivative in tissue sample, analysis a [2]","N-acyl-derivative in tissue sample, analysis b [2]","N-acyl-derivative in tissue sample, mean [2]","N-acyl-derivative in tissue sample, analysis a [3]","N-acyl-derivative in tissue sample, analysis b [3]","N-acyl-derivative in tissue sample, mean [3]","N-acyl-derivative in tissue sample, analysis a [4]","N-acyl-derivative in tissue sample, analysis b [4]","N-acyl-derivative in tissue sample, analysis a [5]","N-acyl-derivative in tissue sample, analysis b [5]","N-acyl-derivative in tissue sample, mean [5]","N-acyl-derivative in tissue sample, analysis a [6]","N-acyl-derivative in tissue sample, analysis b [6]","N-acyl-derivative in tissue sample, mean [6]","N-acyl-derivative in tissue sample, analysis a [7]","N-acyl-derivative in tissue sample, analysis b [7]","N-acyl-derivative in tissue sample, mean [7]","N-acyl-derivative in tissue sample, analysis a [8]","N-acyl-derivative in tissue sample, analysis b [8]",also measured
CCCCCCCCCCCCCCCC(=O)NC(C)C(O)CC(O)CCCCC(O)CC(C)CC(OC(=O)CC(CC(=O)O)C(=O)O)C(OC(=O)CC(CC(=O)O)C(=O)O)C(C)CCCC (stereo not shown) [FB1C16:0],"7,4","14,4","12,6","13,5","12,1","13,8","13,0","0,0","0,0","6,8","5,1","6,0","3,9","6,4","5,2","8,4","5,9","7,1","0,0","0,0","N-acyl-derivative in tissue sample, analysis b [1]: 9,1; N-acyl-derivative in tissue sample, mean [1]: 8,2; N-acyl-derivative in tissue sample, mean [4]: 0,0; N-acyl-derivative in tissue sample, mean [8]: 0,0"
CCCCCCCCCCCCCCCCCC(=O)NC(C)C(O)CC(O)CCCCC(O)CC(C)CC(OC(=O)CC(CC(=O)O)C(=O)O)C(OC(=O)CC(CC(=O)O)C(=O)O)C(C)CCCC (stereo not shown) [FB1C18:0],"2,5","3,8","3,1","3,4","4,0","2,8","3,4","0,0","0,0","3,1","2,4","2,8","2,0","3,0","2,5","3,0","3,9","3,5","0,0","0,0","N-acyl-derivative in tissue sample, analysis b [1]: 2,9; N-acyl-derivative in tissue sample, mean [1]: 2,7"
CCCCCCCCCCCCCCCCCCCC(=O)NC(C)C(O)CC(O)CCCCC(O)CC(C)CC(OC(=O)CC(CC(=O)O)C(=O)O)C(OC(=O)CC(CC(=O)O)C(=O)O)C(C)CCCC (stereo not shown) [FB1C20:0],"0,2","0,2","0,0","0,1","0,0","0,6","0,3","0,0","0,0","0,0","0,0","0,0","0,0","0,0","0,0","0,0","0,0","0,0","0,0","0,0","N-acyl-derivative in tissue sample, analysis b [1]: 0,5; N-acyl-derivative in tissue sample, mean [1]: 0,4; N-acyl-derivative in tissue sample, mean [4]: 0,0; N-acyl-derivative in tissue sample, mean [8]: 0,0"
CCCCCCCCCCCCCCCCCCCCCC(=O)NC(C)C(O)CC(O)CCCCC(O)CC(C)CC(OC(=O)CC(CC(=O)O)C(=O)O)C(OC(=O)CC(CC(=O)O)C(=O)O)C(C)CCCC (stereo not shown) [FB1C22:0],"0,7","0,9","0,6","0,7","0,9","1,4","1,2","0,0","0,0","2,9","6,4","4,7","1,2","4,0","2,6","2,9","4,6","3,8","0,0","0,0","N-acyl-derivative in tissue sample, analysis b [1]: 0,7; N-acyl-derivative in tissue sample, mean [1]: 0,7; N-acyl-derivative in tissue sample, mean [4]: 0,0; N-acyl-derivative in tissue sample, mean [8]: 0,0"
CCCCCCCCCCCCCCCCCCCCCCCC(=O)NC(C)C(O)CC(O)CCCCC(O)CC(C)CC(OC(=O)CC(CC(=O)O)C(=O)O)C(OC(=O)CC(CC(=O)O)C(=O)O)C(C)CCCC (stereo not shown) [FB1C24:0],,"3,0","2,4","2,7","5,0","4,4","4,7","0,0","0,0","11,7","12,3","12,0","2,1","7,3","4,7","9,0","17,6","13,3","0,0","0,0","N-acyl-derivative in tissue sample, mean [4]: 0,0; N-acyl-derivative in tissue sample, mean [8]: 0,0"
CCCCCCCCC=CCCCCCCCCCCCCCC(=O)NC(C)C(O)CC(O)CCCCC(O)CC(C)CC(OC(=O)CC(CC(=O)O)C(=O)O)C(OC(=O)CC(CC(=O)O)C(=O)O)C(C)CCCC (stereo not shown) [FB1C24:1],"3,6","4,1","4,6","4,3","5,7","4,2","4,9","0,0","0,0","9,2","11,8","10,5","3,4","6,3","4,9","9,0","11,1","10,1","0,0","0,0","N-acyl-derivative in tissue sample, analysis b [1]: 3,5; N-acyl-derivative in tissue sample, mean [1]: 3,6; N-acyl-derivative in tissue sample, mean [4]: 0,0; N-acyl-derivative in tissue sample, mean [8]: 0,0"
